The values that follow come from patent EP4647071A1, “MITOCHONDRIAL COMPLEX I MODULATOR FOR USE IN THE TREATMENT OF ARTHRITIS” (Istesso Therapeutics Limited, priority 2024, dated 2025).

Marks after values point to notes of the source that are not given here.

One experiment relates to C-reactive protein (CRP). In words: C-reactive protein inflammatory biomarker, clinical study. It counts as in vivo, human. Conditions: 12 weeks.
A further experiment has as its system rheumatoid factor. In words: Rheumatoid factor inflammatory biomarker, clinical study. In kind it is in vivo, human. As to conditions: 12 weeks. From the text:
These structural changes are accompanied by a reduction in the acute phase reactant, C-reactive protein (CRP) and other inflammatory markers such as rheumatoid factor (Table 4). Table 3. Effect of MCIM compounds on damage indicators. * indicates statistical significance, p<0.05. a p = 0.1

Regarding `C[C@]1(O)CC[C@H](NS(=O)(=O)c2ccc(-c3ccc(Cl)cc3C#N)cc2)CC1` [HMC-C-01-A], the “CRP- mean, Change from baseline” value is on record as 0.88 (18.4) in the experiment on C-reactive protein (CRP) (5 mg once daily); -4.13 (20.6) with C-reactive protein (CRP) (20 mg once daily); -5.73 (27.7) * in the experiment on C-reactive protein (CRP) (40 mg once daily, p<0.05). For the same compound, the “CRP- median, Change from baseline” value in the experiment with C-reactive protein (CRP) (5 mg once daily) is on record as -0.20; in the experiment on C-reactive protein (CRP) (20 mg once daily), -0.10; with C-reactive protein (CRP) (40 mg once daily, p<0.05), -2.50 *. Also, the “Rheumatoid factor, mean, Change from baseline” value is 6.8 (80.9) in the experiment on rheumatoid factor (5 mg once daily), -5.0 (60.4) in the experiment on rheumatoid factor (20 mg once daily) and -11.3 (88.0) in the experiment on rheumatoid factor (40 mg once daily).
